According to patent US10039764B2, “Treatment and diagnosis of cancer and precancerous conditions using PDE10A inhibitors and methods to measure PDE10A expression” (University of South Alabama, priority 2013, dated 2018):
Like-named read-outs stand apart in the source and are kept apart here. Blank lines part the entries; values can stand above or below the molecule they belong to.

What was measured:
[1] = system: HCT116 human colon tumor cells; test: Growth assay (Cell Titer Glo), HCT116; type: cell-based; details: for HCT116 colon tumor cell growth, single agents and combination (in words): FIG. 12A
Text: (§1) All cell lines comprising the NCI-60 cancer cell panel were obtained from the NCI Developmental Therapeutics Program and maintained under the same standard conditions. The human normal colonocyte (NCM460) cell line was purchased from Incell (San Antonio, Tex.) and grown according to the manufacturer's specifications. The human colon adenoma cell line, LT97, was a gift from Dr. Brigitte Marian (Medical University Vienna, Austria) and grown according to the provider's specifications. Human mammary epithelial cells (HMEC) were purchased from Lonzo and grown using culture conditions as recommended by the supplier.
(§2) Ninety-six (96)-well microtiter plates were seeded at a density of 5,000 cells per well. For drug treatment, cells were treated with compounds or vehicle control, and incubated at 37° C. for 72 hours. For siRNA assays, cells were transfected with siRNA under the same conditions described above. The effect of treatment with inhibitors or siRNA knockdown of PDE10A on growth was measured using the Cell Titer Glo Assay (Promega), which measures viable cell number based on ATP content.
(§3) Effect of various PDE isozyme inhibitors on the growth of human colon tumor cells HCT116 and HT29 was determined using the Cell Titer Glo Cell Viability Assay (Promega) following 72 hours of treatment.
(§4) The effect of the inhibitors on the growth of human colon tumor and normal colonocytes was measured using the Cell Titer Glo Cell Viability Assay (Promega) as described above. The inhibitory potency toward purified recombinant phosphodiesterase enzymes was measured using the IMAP Phosphodiesterase Assay as described in the Materials and Methods section.

[2] = system: HT29 human colon tumor cells; test: Growth assay (Cell Titer Glo), HT29; type: cell-based
Text: as §1, §2, §3, §4

β-catenin and survivin = test: Western blotting of β-catenin and survivin levels in HCT116; type: cell-based, human; details: FIG. 12B
Protocol: Western blot analysis was performed as described previously (Tinsley, et al., supra). The following antibodies were used to detect specific proteins: PDE2 (GeneTex, 1:1000), PDE3 (Abcam, 1:1000), PDE5 (Cell Signaling, 1:1000), PDE10 (GeneTex, 1:1000), survivin (Cell Signaling, 1:1000), GAPDH (Cell Signaling, 1:5000).

[3] = system: SW480 human colon tumor cells; test: Growth assay (Cell Titer Glo), SW480; type: cell-based; details: PDE10 Inhibitors table, read-out: Growth Inhibition IC50, SW-480
Text: as §1, §2, §4

[4] = system: cGMP PDE activity in lysates from HCT116 cells; test: cGMP PDE activity in HCT116 cell lysates (IMAP); type: biochemical, human; details: FIG. 11B
Protocol: Cell growth was measured by the Cell Titer Glo cell viability assay (Promega) following 72 hours of treatment, while cGMP PDE activity was measuring using the IMAP fluorescence polarization PDE assay (Molecular Devises).
(§5) PDE enzymatic activity was measured using IMAP fluorescence polarization assay (Molecular Devices. Inc.). […] For experiments involving cell extracts, 2×10^5 cells per well were plated on a six-well tissue culture plate 72 hours prior to cell lysis.

[5] = system: normal colonocytes (NCM460); test: Growth assay (Cell Titer Glo), normal colonocytes NCM460; type: cell-based, human; details: for IC50: Homo sapiens, NCM460
Text: as §1, §2, §4

other PDE isozymes = details: reported, read-out: Phosphodiesterase Inhibition, Others, IC50 (reported); cited from earlier work
PDE7A1 = PDE7A1 (Homo sapiens, UniProt Q13946); details: @ 3 μM; cited from earlier work
PDE3A = biological target: T1, PDE3A (Homo sapiens, UniProt Q14432); details: reported; substrate column not distinguished; read-out: Phosphodiesterase Inhibition PDE3A IC50 (reported); cited from earlier work
T1 construct: purchased BPS Biosciences

PDE10A [6] = details: reported; substrate column not distinguished; read-out: Phosphodiesterase Inhibition PDE10A IC50 (reported); cited from earlier work
[7] = system: patients with metastatic disease; details: Lundholm et al. 1994; cited from earlier work
PDE10A [8] = biological target: T2, PDE10A (Homo sapiens, UniProt Q9Y233); test: IMAP fluorescence polarization PDE assay, PDE10A; type: biochemical; details: recombinant enzyme
T2 construct: other: substrate cGMP; recombinant enzyme; other: substrate cAMP
Protocol: (§6) MY5445 was purchased from EMD Millipore. […] Recombinant PDE enzymes were purchased from BPS Biosciences. DMSO was used as the vehicle for testing effects of all compounds.
as §5, §4

human colon tumor cells = test: Colon tumor cell growth (Cell Titer Glo), cell line not specified; type: cell-based; details: 72 hours of treatment
Protocol: as §2, §3

[9] = system: NCI-60 cancer cell line panel; test: Growth inhibition in NCI-60 cancer cell line panel; type: cell-based, human; details: FIG. 13
Protocol: Tumor growth inhibitory activity was measured using a cell viability assay following 72 hours of treatment. Potency values (GI50) as measured in each tumor cell line are shown on the y axis.
The human colon tumor cell lines, HCT116, HT29, SW480, SW620, colo741, Caco-2, DLD-1, LS174T, and RKO and human breast tumor cell lines, MCF7, T47D, ZR75, MDA-MB-231, HS578T, and MDA-MB-468 were purchased from ATCC and grown under standard cell culture conditions in RPMI 1640 medium containing 5% fetal bovine serum (FBS) at 37° C. in a humidified atmosphere with 5% CO2. All cell lines comprising the NCI-60 cancer cell panel were obtained from the NCI Developmental Therapeutics Program and maintained under the same standard conditions. The human normal colonocyte (NCM460) cell line was purchased from Incell (San Antonio, Tex.) and grown according to the manufacturer's specifications. The human colon adenoma cell line, LT97, was a gift from Dr. Brigitte Marian (Medical University Vienna, Austria) and grown according to the provider's specifications. […]
Ninety-six (96)-well microtiter plates were seeded at a density of 5,000 cells per well. […] The effect of treatment with inhibitors or siRNA knockdown of PDE10A on growth was measured using the Cell Titer Glo Assay (Promega), which measures viable cell number based on ATP content. […]

PDE5A = biological target: T3, PDE5A (Homo sapiens, UniProt O76074); test: IMAP fluorescence polarization PDE assay, PDE5A; type: biochemical; details: substrate cGMP; read-out: Phosphodiesterase Inhibition PDE5A (PDE5) cGMP IC50
T3 construct: purchased BPS Biosciences
Protocol: as §6, §5, §4

[10] = 72 hours of treatment, PDE isozyme inhibitor table
[11] = Homo sapiens, HCT-116, PDE10 Inhibitors table, read-out: Growth Inhibition IC50, HCT-116
[12] = Homo sapiens, HT-29, PDE10 Inhibitors table, read-out: Growth Inhibition IC50, HT-29
[13] = PDE10 Inhibitors table, read-out: Growth Inhibition IC50, NCM-460

T2 sequence (Q9Y233 290-1055 limits assumed): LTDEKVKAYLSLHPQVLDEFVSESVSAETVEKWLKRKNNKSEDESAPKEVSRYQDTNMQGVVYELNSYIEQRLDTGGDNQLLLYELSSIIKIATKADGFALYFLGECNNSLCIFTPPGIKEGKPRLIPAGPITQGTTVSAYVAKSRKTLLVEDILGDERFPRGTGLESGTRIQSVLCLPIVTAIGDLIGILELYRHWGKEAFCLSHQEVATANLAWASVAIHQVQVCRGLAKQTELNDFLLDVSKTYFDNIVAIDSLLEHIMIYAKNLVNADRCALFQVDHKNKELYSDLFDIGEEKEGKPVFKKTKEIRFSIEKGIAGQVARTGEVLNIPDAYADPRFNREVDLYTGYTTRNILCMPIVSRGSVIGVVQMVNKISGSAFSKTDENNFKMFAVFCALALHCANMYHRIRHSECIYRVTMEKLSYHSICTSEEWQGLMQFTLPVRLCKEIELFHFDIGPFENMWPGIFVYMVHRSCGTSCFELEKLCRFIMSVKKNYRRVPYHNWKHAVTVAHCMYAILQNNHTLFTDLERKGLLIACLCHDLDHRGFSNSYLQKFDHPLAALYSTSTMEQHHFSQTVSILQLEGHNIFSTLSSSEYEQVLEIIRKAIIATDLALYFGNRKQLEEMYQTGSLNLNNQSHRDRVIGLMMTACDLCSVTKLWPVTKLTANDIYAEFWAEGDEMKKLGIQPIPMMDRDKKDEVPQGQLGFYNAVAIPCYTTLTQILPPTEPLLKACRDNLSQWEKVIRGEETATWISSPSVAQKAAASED
Chain of PDE7A1 (Q13946 whole entry, species assumed): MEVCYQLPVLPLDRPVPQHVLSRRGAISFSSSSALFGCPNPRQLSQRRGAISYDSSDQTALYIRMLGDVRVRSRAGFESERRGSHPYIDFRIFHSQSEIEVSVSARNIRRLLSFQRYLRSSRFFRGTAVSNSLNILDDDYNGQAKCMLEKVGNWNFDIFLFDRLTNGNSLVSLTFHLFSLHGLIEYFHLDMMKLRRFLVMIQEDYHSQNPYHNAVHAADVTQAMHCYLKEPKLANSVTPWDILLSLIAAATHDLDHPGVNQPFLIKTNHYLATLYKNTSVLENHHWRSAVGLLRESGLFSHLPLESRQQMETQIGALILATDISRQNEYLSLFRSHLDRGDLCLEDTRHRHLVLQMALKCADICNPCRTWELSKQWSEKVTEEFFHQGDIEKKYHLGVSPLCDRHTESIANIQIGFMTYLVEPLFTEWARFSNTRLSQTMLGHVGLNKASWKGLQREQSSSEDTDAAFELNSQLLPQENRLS
T1 sequence (Q14432 whole entry): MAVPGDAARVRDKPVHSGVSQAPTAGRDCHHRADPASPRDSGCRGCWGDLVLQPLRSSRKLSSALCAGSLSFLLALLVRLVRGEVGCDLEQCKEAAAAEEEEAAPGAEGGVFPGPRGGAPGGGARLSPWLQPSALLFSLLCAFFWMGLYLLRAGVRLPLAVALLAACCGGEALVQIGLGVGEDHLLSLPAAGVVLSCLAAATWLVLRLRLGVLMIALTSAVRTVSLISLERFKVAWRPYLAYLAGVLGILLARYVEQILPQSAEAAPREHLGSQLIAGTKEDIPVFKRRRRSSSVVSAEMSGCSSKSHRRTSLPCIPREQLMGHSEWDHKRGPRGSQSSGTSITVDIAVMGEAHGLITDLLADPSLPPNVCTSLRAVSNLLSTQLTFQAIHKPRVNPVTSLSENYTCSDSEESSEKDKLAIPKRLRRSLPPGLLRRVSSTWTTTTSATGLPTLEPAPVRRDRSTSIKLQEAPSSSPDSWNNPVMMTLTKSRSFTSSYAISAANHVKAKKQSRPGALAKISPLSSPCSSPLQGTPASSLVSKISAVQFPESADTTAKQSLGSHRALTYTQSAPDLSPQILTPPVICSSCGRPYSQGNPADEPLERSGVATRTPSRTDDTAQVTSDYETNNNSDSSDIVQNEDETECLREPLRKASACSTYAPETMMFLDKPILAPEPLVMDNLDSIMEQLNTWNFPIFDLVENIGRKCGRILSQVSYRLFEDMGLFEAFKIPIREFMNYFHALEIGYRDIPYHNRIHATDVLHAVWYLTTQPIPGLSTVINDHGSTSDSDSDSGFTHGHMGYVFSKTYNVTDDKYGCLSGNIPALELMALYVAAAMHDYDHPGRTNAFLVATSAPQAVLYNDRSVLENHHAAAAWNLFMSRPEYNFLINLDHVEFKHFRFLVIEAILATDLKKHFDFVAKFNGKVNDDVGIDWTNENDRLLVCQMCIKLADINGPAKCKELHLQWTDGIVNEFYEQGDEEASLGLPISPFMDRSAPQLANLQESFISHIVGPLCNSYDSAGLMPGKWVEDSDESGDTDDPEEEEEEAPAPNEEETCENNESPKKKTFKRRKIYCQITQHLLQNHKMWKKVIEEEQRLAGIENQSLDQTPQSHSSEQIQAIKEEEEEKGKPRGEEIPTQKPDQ

- Growth Inhibition (IC50/μM) HCT116 [1, 10]: Inactive
- Growth Inhibition (IC50/μM) HT29 [2, 10]: Inactive
SMILES: COc1ccc(C2CNC(=O)C2)cc1OC1CCCC1 (centres unmarked) [Rolipram, rolipram]

- Growth Inhibition (IC50/μM) HCT116 [1, 10]: Inactive
- Growth Inhibition (IC50/μM) HT29 [2, 10]: Inactive
SMILES: CCCCCC[C@@H]([C@@H](C)O)n1cnc2c(N)ncnc21 (racemic) [EHNA]

- IC50 ([1]; Homo sapiens, HCT-116, 72 hours of treatment, PDE isozyme inhibitor table, read-out: Growth Inhibition (IC50/μM) HCT116): 38 µM
SMILES: CN1CC(=O)N2[C@H](c3ccc4c(c3)OCO4)c3[nH]c4ccccc4c3C[C@@H]2C1=O [Tadalafil, tadalafil]

- IC50 [1, 11]: 9.93 µM
- IC50 (PDE10A [8]; substrate cAMP, read-out: Phosphodiesterase Inhibition PDE10A cAMP IC50): 0.00866 µM
- IC50 (PDE10A [8]; substrate cGMP, read-out: Phosphodiesterase Inhibition PDE10A cGMP IC50): 0.0089 µM
SMILES: Cc1nc2c3cc(Br)ccc3nc(SCC#N)n2n1 [Compound no. 5, 2-{(9-bromo-2-methyl-[1,2,4]triazolo[1,5-c]quinazolin-5-yl)thio}acetonitrile]

More lines, now with the values behind:

SMILES: COc1ccc(Cc2nccc3cc(OC)c(OC)cc23)cc1OC [Papaverine, papaverine]
- β-catenin and survivin levels in HCT116 colon tumor cells (in words) (β-catenin and survivin): reduced
- IC50 [3]: 11.2 µM
- HCT116 colon tumor cell growth, single agents and combination (in words) [1]: suppressed
- IC50 ([1]; Homo sapiens, HCT-116, 72 h, read-out: Growth Inhibition (IC50/μM) HCT116): 9 µM
- IC50 ([1]; Homo sapiens, HCT-116, 72 hours of treatment, FIG. 11, read-out: IC50, growth of HCT116 colon tumor cells): 9 µM
- IC50 [1, 11]: 6.7 µM
- cGMP hydrolysis in lysates from HCT116 cells (in words) [4]: inhibited
- IC50 ([2]; Homo sapiens, HT-29, 72 h, read-out: Growth Inhibition (IC50/μM) HT29): 13 µM
- IC50 ([2]; Homo sapiens, HT-29, 72 hours of treatment, FIG. 11, read-out: IC50, growth of HT29 colon tumor cells): 13 µM
- IC50 [2, 12]: 24.5 µM
- IC50 ([5]; 72 hours of treatment, FIG. 11, read-out: IC50, growth of normal colonocytes (NCM460)): 118 µM
- IC50 [5, 13]: > 100 µM
- normal colonocytes (NCM460) less sensitive than colon tumor cell lines ([5]; NCM460 vs HCT116 and HT29): approximately 11 fold

SMILES: Clc1cccc(Nc2nnc(-c3ccccc3)c3ccccc23)c1 [MY5445]
- β-catenin and survivin levels in HCT116 colon tumor cells (in words) (β-catenin and survivin): reduced
- IC50 ([1]; 72 hours of treatment, PDE isozyme inhibitor table, read-out: Growth Inhibition (IC50/μM) HCT116): 18 µM
- HCT116 colon tumor cell growth, single agents and combination (in words) [1]: suppressed
- IC50 ([2]; 72 hours of treatment, PDE isozyme inhibitor table, read-out: Growth Inhibition (IC50/μM) HT29): 11 µM

SMILES: COc1cc2c(cc1OC)-c1c(-c3cccnc3)ncn1CC2 [Compound no. 7, 8,9-dimethoxy-1-(pyridin-3-yl)-5,6-dihydroimidazo[5,1-a]isoquinoline]
- IC50 (other PDE isozymes): > 4 µM
- Phosphodiesterase Inhibition PDE7A1 (reported) (PDE7A1): 45%
- IC50 (PDE3A): 0.449 µM
- IC50 [3]: > 50 µM
- IC50 [1, 11]: > 50 µM
- IC50 (PDE10A [6]): 0.029 µM
- IC50 [2, 12]: > 50 µM

SMILES: COCc1nc2c([nH]1)c(=O)n(C)c(=O)n2CC(C)C [8-MeoM-IBMX]
- Growth Inhibition (IC50/μM) HCT116 [1, 10]: Inactive
- Growth Inhibition (IC50/μM) HT29 [2, 10]: Inactive

SMILES: COc1ccc2c(c1)c(CC(=O)O)c(C)n2C(=O)c1ccc(Cl)cc1 [indomethacin]
- extension of survival [7]: approximately 9 months

SMILES: COc1cc(/C=N/NC(=O)C(OC)c2ccc(-n3cccn3)cc2)cc(OC)c1Br (centres unmarked) [Compound no. 4, (E)-2-{4-(1H-pyrazol-1-yl)phenyl}-N′-(4-bromo-3,5-dimethoxybenzylidene)-2-methoxyacetohydrazide]
- IC50 ([1]; Homo sapiens, HCT-116, read-out: Growth Inhibition IC50, HCT-116): 3.13 µM

SMILES: Cn1cc(-c2ccncc2)c(-c2ccc(OCc3ccc4ccccc4n3)cc2)n1 [PF-2545920, 2-[4-(1-methyl-4-pyridin-4-yl-1H-pyrazol-3-yl)-phenoxymethyl]-quinoline]
- colon tumor cell growth inhibition (in words) (human colon tumor cells): potently inhibited
- IC50 [3]: 3.7 µM
- IC50 [1, 11]: 8.4 µM
- IC50 [2, 12]: 0.95 µM
- growth inhibition in normal colonocytes (in words) ([5]; 72 hours of treatment, FIG. 11D): appreciably less effective
- IC50 [5, 13]: 18.8 µM
- tumor cell growth inhibitory activity in the NCI-60 cancer cell line panel (in words) [9]: broad range of tumor cell growth inhibitory activity
- GI50 ([9]; Homo sapiens, 72 hours of treatment, average over panel, read-out: average GI50 value in NCI60 cancer cell line panel): 17.7 µM
- IC50 (PDE5A): > 50 µM

SMILES: O=C1CCc2cc(OCCCCc3nnnn3C3CCCCC3)ccc2N1 [Cilostazol, cilostazol]
- Growth Inhibition (IC50/μM) HCT116 [1, 10]: Inactive
- Growth Inhibition (IC50/μM) HT29 [2, 10]: Inactive
